Laboratory results reported in ChEMBL document CHEMBL1944587, “4-Piperidin-4-ylidenemethyl-benzamides as δ-opioid receptor agonists for CNS indications: identifying clinical candidates” (Bioorg Med Chem Lett, 2012).

Experiment: physchem
Details: octanol/water

Compound	logD
O=C(c1ccc(C(=C2CCN(Cc3cscn3)CC2)c2cccc3cccnc23)cc1)N1CCC(O)CC1	1.9
CN1CCN(C(=O)c2ccc(C(=C3CCN(Cc4cscn4)CC3)c3cccc4cccnc34)cc2)CC1	2
CN(C)C(=O)c1ccc(C(=C2CCN(Cc3cscn3)CC2)c2cccc3cccnc23)cc1	2.3
O=C(c1ccc(C(=C2CCN(Cc3cscn3)CC2)c2cccc3cccnc23)cc1)N1CCOCC1	2.1
O=C(c1ccc(C(=C2CCN(Cc3cscn3)CC2)c2cccc3cccnc23)cc1)N1CCCC1	2.8
